Results as given in patent publication US20250345492A1, “AN ANTIBACTERIAL POLYPEPTIDE COMPOUND, A MEDICAL DEVICE, HYDROGEL AND USE THEREOF” (priority 2020, published 2025).
Ends that are not written are not given here.

Key:
[1] = tested on: Bacillus subtilis (ATCC 23857); details: standard strain
Method in brief: (§1)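 Log-phase cells grown in MH (bacteria) or SD (fungi) medium at 37 °C were plated at 1×10^5 CFU/ml with 2-fold serially diluted peptide (1-256 μM solutions added at twice final concentration). After 12 h at 37 °C, MIC was taken as the first clear well by eye, in triplicate.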

[2] = tested on: C. albicans ATCC14053; details: fungus
Method in brief: as §1

[3] = tested on: C. glabrata ATCC22019; details: fungus
Method in brief: as §1

[4] = tested on: C. krusei ATCC6258; details: fungus
Method in brief: as §1

[5] = tested on: C. parapsilosis ATCC2001; details: fungus
Method in brief: as §1

[6] = tested on: C. tropicalis ATCC750; details: fungus
Method in brief: as §1

[7] = tested on: Cronobacter sakazakii (ATCC 29544); details: standard strain
Method in brief: as §1

[8] = tested on: E-1b, clinical isolated drug-resistant strain ESBL; details: strain E-1b (ESBL)
Method in brief: as §1

[9] = tested on: E-2b, clinical isolated drug-resistant strain ESBL; details: strain E-2b (ESBL)
Method in brief: as §1

[10] = tested on: E-3b, clinical isolated drug-resistant strain ESBL; details: strain E-3b (ESBL)
Method in brief: as §1

[11] = tested on: E-4b, clinical isolated drug-resistant strain ESBL; details: strain E-4b (ESBL)
Method in brief: as §1

[12] = tested on: E-5b, clinical isolated drug-resistant strain ESBL; details: strain E-5b (ESBL)
Method in brief: as §1

[13] = tested on: E. coli (ATCC 25922); details: standard strain
Method in brief: as §1

[14] = tested on: P-1c, clinical isolated drug-resistant strain PA; details: strain P-1c (PA)
Method in brief: as §1

[15] = tested on: P-2c, clinical isolated drug-resistant strain PA; details: strain P-2c (PA)
Method in brief: as §1

[16] = tested on: P-3c, clinical isolated drug-resistant strain PA; details: strain P-3c (PA)
Method in brief: as §1

[17] = tested on: P-4c, clinical isolated drug-resistant strain PA; details: strain P-4c (PA)
Method in brief: as §1

[18] = tested on: P-5c, clinical isolated drug-resistant strain PA; details: strain P-5c (PA)
Method in brief: as §1

[19] = tested on: Pseudomonas aeruginosa (ATCC 27853); details: standard strain
Method in brief: as §1

[20] = tested on: S-1a, clinical isolated drug-resistant strain MRSA; details: strain S-1a (MRSA)
Method in brief: as §1

[21] = tested on: S-2a, clinical isolated drug-resistant strain MRSA; details: strain S-2a (MRSA)
Method in brief: as §1

[22] = tested on: S-3a, clinical isolated drug-resistant strain MRSA; details: strain S-3a (MRSA)
Method in brief: as §1

[23] = tested on: S-4a, clinical isolated drug-resistant strain MRSA; details: strain S-4a (MRSA)
Method in brief: as §1

[24] = tested on: Staphylococcus aureus (ATCC 29213); details: standard strain
Method in brief: as §1

[25] = tested on: Staphylococcus epidermidis (ATCC 12228); details: standard strain
Method in brief: as §1

[26] = tested on: E. coli (ATCC 25922); assay: Outer membrane permeability, NPN probe; assay type: cell-based; details: 1×MIC to 8×MIC, NPN fluorescence, 15 min
Protocol: The destruction of bacterial cell OM was determined by using hydrophobic fluorescent probe NPN (1-N-phenylnaphthylamine) to determine the effect of the compounds on the OM permeability of E. coli (ATCC 25922).
Taking compounds 2, 8, 9, 13 and 15 of the present invention as examples, the OM permeability of E. coli with the presence of the antibacterial polypeptide compounds was analyzed. E. coli cells were washed twice with PBS solution and resuspended in 5 mM HEPES (pH 7.2), and then diluted to a concentration of […]. […] The excitation wavelength and emission wavelength were set to 350 nm and 420 nm, separately, and the cells were detected once every minute using a multifunctional ELISA reader within a 15-min period of time.

Substance | MIC B. subtilis ATCC23857 [1] [µM] | MIC C. albicans ATCC14053 [2] [µM] | MIC C. glabrata ATCC22019 [3] [µM] | MIC C. krusei ATCC6258 [4] [µM] | MIC C. parapsilosis ATCC2001 [5] [µM] | MIC C. tropicalis ATCC750 [6] [µM] | MIC C. sakazakii ATCC29544 [7] [µM] | MIC [8] [µM] | MIC [9] [µM] | MIC [10] [µM] | MIC [11] [µM] | MIC [12] [µM] | MIC C. coli ATCC25922 [13] [µM] | MIC [14] [µM] | MIC [15] [µM] | MIC [16] [µM] | MIC [17] [µM] | MIC [18] [µM] | MIC P. aerugmosa ATCC27853 [19] [µM] | MIC [20] [µM] | further results
Pro-Phe-Lys-Leu-Ser-Leu-His-Leu-NH2 (PFKLSLHL-NH2) [Compound J-1, reference compound] | 32 | 64 | 64 | 32 | 32 | 16 | 64 | 32 | 32 | 32 | 32 | 32 | 32 | 32 | 32 | 32 | 32 | 32 | 32 | 128 | MIC [21]: 128 µM; MIC [22]: 128 µM; MIC [23]: 128 µM; MIC S. aureus ATCC29213 [24]: 128 µM; MIC S. epidermidis ATCC12228 [25]: 64 µM; OM permeability of E. coli [26]: destroy the integrity of the E. coli OM in a dose-dependent manner
Pro-Trp-Orn-Leu-Orn-Leu-His-Leu-NH2 (PWXLXLHL; HELM PEPTIDE1{P.W.[Orn].L.[Orn].L.H.L.[am]}$$$$V2.0; N-terminus assumed; SMILES CC(C)C[C@H](NC(=O)[C@H](Cc1c[nH]cn1)NC(=O)[C@H](CC(C)C)NC(=O)[C@H](CCCN)NC(=O)[C@H](CC(C)C)NC(=O)[C@H](CCCN)NC(=O)[C@H](Cc1c[nH]c2ccccc12)NC(=O)[C@@H]1CCCN1)C(N)=O) [Compound 9] | 16 | 32 | 16 | 64 | 16 | 16 | 16 | 8 | 8 | 8 | 8 | 8 | 8 | 8 | 8 | 8 | 8 | 8 | 8 | 64 | MIC [21]: 64 µM; MIC [22]: 64 µM; MIC [23]: 64 µM; MIC S. aureus ATCC29213 [24]: 64 µM; MIC S. epidermidis ATCC12228 [25]: 32 µM; OM permeability of E. coli [26]: destroy the integrity of the E. coli OM in a dose-dependent manner
